# Source: ChEMBL document CHEMBL1201862, “PubChem BioAssay data set” (2004)
#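 Five concentrations, 48 hours, 96-well plates. GI50 is the concentration that inhibits growth by half.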 Calls of active or inactive are those of the source. No stated cut-off is given here; in the data, active = GI50 up to about 1.1 µM and inactive = higher.
# Columns and labels:
# Experiment in all cases: inhibition of tumour cell growth, NCI panel, 48 h
# [1] = tested on: ACHN
# [2] = tested on: CCRF-CEM
# [3] = tested on: OVCAR-3
# [4] = tested on: SK-MEL-2
# [5] = tested on: RXF 631
# [6] = tested on: HCT-116
# [7] = tested on: SNB-78
# [8] = tested on: NCI-H460
# [9] = tested on: CAKI-1
# [10] = tested on: NCI-H226
# [11] = tested on: DLD-1
# [12] = tested on: HOP-92
# [13] = tested on: A549
# [14] = tested on: A498
# [15] = tested on: SF-539
# [16] = tested on: KM-20L2
# [17] = tested on: Malme-3M
# [18] = tested on: MOLT-4
# [19] = tested on: SF-268
# [20] = tested on: SR
# [21] = tested on: HCC 2998
# [22] = tested on: U-251
# [23] = tested on: LOX IMVI
# [24] = tested on: KM12
# [25] = tested on: HT-29
# [26] = tested on: EKVX
# [27] = tested on: K562
# [28] = tested on: COLO 205
# [29] = tested on: OVCAR-4
# [30] = tested on: IGROV-1
# [31] = tested on: SK-OV-3
# [32] = tested on: M14
# [33] = tested on: SF-295
# [34] = tested on: SNB-75
# [35] = tested on: 786-0
# [36] = tested on: UO-31
# [37] = tested on: TK-10
# [38] = tested on: HCT-15
# [39] = tested on: RXF 393
# [40] = tested on: SN12C
# [41] = tested on: HL-60
# [42] = tested on: UACC-257
# [43] = tested on: HOP-62
# [44] = tested on: SK-MEL-5
# [45] = tested on: DMS-114
# [46] = tested on: LXFL 529
# [47] = tested on: SW-620
# [48] = tested on: NCI-H23
# [49] = tested on: OVCAR-5
# [50] = tested on: HOP-18
# [51] = tested on: SK-MEL-28
# [52] = tested on: M19-MEL
# [53] = tested on: RPMI-8226
# [54] = tested on: DMS-273
# [55] = tested on: SNB-19
# [56] = tested on: UACC-62
structure (smiles),measurement,setting,value
O=C(CC1(O)C(=O)Nc2ccccc21)c1ccc(O)cc1 (stereo unspecified),GI50,[1],> 100 µM (inactive)
same,GI50,[2],> 100 µM (inactive)
same,GI50,[3],> 100 µM (inactive)
same,GI50,[4],> 100 µM (inactive)
same,GI50,[5],> 100 µM (inactive)
same,GI50,[6],> 100 µM (inactive)
same,GI50,[7],> 100 µM (inactive)
same,GI50,[8],> 100 µM (inactive)
same,GI50,[9],> 100 µM (inactive)
same,GI50,[10],> 100 µM (inactive)
same,GI50,[11],> 100 µM (inactive)
same,GI50,[12],> 100 µM (inactive)
same,GI50,[13],> 100 µM (inactive)
same,GI50,[14],> 100 µM (inactive)
same,GI50,[15],> 100 µM (inactive)
same,GI50,[16],> 100 µM (inactive)
same,GI50,[17],> 100 µM (inactive)
same,GI50,[18],> 100 µM (inactive)
same,GI50,[19],> 100 µM (inactive)
same,GI50,[20],> 100 µM (inactive)
same,GI50,[21],> 100 µM (inactive)
same,GI50,[22],> 100 µM (inactive)
same,GI50,[23],> 100 µM (inactive)
same,GI50,[24],> 100 µM (inactive)
same,GI50,[25],> 100 µM (inactive)
same,GI50,[26],> 100 µM (inactive)
same,GI50,[27],> 100 µM (inactive)
same,GI50,[28],> 100 µM (inactive)
same,GI50,[29],> 100 µM (inactive)
same,GI50,[30],> 100 µM (inactive)
same,GI50,[31],> 100 µM (inactive)
same,GI50,[32],> 100 µM (inactive)
same,GI50,[33],> 100 µM (inactive)
same,GI50,[34],69 µM (inactive)
same,GI50,[35],> 100 µM (inactive)
same,GI50,[36],> 100 µM (inactive)
same,GI50,[37],> 100 µM (inactive)
same,GI50,[38],> 100 µM
same,GI50,[39],> 100 µM (inactive)
same,GI50,[40],> 100 µM (inactive)
same,GI50,[41],> 100 µM (inactive)
same,GI50,[42],> 100 µM (inactive)
same,GI50,[43],> 100 µM (inactive)
same,GI50,[44],> 100 µM (inactive)
same,GI50,[45],> 100 µM (inactive)
same,GI50,[46],> 100 µM (inactive)
same,GI50,[47],> 100 µM (inactive)
same,GI50,[48],> 100 µM (inactive)
same,GI50,[49],> 100 µM (inactive)
same,GI50,[50],> 100 µM (inactive)
same,GI50,[51],> 100 µM (inactive)
same,GI50,[52],70.1 µM (inactive)
same,GI50,[53],> 100 µM (inactive)
same,GI50,[54],> 100 µM (inactive)
same,GI50,[55],> 100 µM (inactive)
same,GI50,[56],> 100 µM (inactive)
